{"source": "patent US20190274971A1", "about": "“USE OF AMERICAN GINSENG TO […]-INDUCED INTOXICATION” (ENGEN MEDICAL CORPORATION, priority 2018, published 2019)", "origin": "cited, not measured here", "target": "CB1 receptor (Homo sapiens, UniProt P21554)", "sequence (P21554 whole entry)": "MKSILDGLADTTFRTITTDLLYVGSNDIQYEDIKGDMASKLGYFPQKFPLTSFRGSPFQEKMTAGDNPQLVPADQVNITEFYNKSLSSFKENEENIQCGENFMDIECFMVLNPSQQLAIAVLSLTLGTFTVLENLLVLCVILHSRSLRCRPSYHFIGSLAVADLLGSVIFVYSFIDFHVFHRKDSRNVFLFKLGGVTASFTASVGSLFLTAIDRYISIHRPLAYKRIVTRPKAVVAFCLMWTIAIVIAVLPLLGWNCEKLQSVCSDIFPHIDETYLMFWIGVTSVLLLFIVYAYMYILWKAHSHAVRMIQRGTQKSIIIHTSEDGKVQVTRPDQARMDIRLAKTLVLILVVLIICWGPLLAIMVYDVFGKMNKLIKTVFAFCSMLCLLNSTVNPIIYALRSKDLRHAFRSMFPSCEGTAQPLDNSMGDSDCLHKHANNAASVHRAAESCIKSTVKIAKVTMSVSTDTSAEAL", "conditions": "literature statement (Leonti et al., Biochemical Pharmacology 79(12):1815-1826, 2010)"}
{"smiles": "C=C[C@H](O)C#CC#CC/C=C\\CCCCCCC", "note": "[falcarinol]", "values": [{"measurement": "activity at the CB1 receptor", "result": "potent inverse agonist"}]}
